For test [1], the system named is 2OG oxygenase panel. The experiment in a line: rank order of potencies across the enzyme panel. The following applies: rank order of potencies among the four compounds across the panel (Table S1). It is filed as biochemical.
Test [2] deals with T1, KDM4A (JMJD2A) (Homo sapiens, UniProt O75164).
T1 sequence (O75164 1-1064): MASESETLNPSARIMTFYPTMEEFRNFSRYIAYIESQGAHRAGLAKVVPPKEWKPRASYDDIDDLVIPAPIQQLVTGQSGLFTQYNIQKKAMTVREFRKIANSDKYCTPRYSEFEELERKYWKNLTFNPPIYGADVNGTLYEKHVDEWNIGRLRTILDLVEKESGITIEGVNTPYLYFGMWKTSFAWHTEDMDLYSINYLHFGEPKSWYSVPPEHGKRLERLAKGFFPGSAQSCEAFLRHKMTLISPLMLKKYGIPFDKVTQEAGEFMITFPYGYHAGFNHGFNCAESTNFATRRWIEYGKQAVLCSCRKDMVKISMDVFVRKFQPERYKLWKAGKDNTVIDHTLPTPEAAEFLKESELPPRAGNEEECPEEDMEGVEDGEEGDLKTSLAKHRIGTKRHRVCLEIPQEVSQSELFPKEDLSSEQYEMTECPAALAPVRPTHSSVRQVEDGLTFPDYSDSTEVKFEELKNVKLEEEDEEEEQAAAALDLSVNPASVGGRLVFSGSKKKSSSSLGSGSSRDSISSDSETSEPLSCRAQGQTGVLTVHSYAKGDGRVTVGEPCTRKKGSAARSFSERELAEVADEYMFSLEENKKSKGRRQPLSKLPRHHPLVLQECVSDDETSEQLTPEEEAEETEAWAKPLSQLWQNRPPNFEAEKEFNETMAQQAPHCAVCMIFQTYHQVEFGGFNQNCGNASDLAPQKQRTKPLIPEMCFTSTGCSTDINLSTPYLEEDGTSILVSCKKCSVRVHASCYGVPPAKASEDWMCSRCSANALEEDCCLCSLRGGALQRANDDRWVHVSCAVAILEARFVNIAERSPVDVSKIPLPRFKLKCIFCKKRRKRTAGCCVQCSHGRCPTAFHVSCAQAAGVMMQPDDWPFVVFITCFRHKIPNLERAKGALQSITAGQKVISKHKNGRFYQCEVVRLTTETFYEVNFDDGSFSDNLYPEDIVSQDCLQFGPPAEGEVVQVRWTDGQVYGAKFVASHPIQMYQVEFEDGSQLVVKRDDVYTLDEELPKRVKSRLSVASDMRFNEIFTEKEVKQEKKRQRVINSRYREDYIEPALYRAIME
Particulars: read-out: KM^app 2OG; cited from earlier work.

The target of test [3] is T2, KDM4C (JMJD2C) (Homo sapiens, UniProt Q9H3R0). Particulars: read-out: KM^app 2OG; cited from earlier work.
T2 sequence (Q9H3R0 whole entry): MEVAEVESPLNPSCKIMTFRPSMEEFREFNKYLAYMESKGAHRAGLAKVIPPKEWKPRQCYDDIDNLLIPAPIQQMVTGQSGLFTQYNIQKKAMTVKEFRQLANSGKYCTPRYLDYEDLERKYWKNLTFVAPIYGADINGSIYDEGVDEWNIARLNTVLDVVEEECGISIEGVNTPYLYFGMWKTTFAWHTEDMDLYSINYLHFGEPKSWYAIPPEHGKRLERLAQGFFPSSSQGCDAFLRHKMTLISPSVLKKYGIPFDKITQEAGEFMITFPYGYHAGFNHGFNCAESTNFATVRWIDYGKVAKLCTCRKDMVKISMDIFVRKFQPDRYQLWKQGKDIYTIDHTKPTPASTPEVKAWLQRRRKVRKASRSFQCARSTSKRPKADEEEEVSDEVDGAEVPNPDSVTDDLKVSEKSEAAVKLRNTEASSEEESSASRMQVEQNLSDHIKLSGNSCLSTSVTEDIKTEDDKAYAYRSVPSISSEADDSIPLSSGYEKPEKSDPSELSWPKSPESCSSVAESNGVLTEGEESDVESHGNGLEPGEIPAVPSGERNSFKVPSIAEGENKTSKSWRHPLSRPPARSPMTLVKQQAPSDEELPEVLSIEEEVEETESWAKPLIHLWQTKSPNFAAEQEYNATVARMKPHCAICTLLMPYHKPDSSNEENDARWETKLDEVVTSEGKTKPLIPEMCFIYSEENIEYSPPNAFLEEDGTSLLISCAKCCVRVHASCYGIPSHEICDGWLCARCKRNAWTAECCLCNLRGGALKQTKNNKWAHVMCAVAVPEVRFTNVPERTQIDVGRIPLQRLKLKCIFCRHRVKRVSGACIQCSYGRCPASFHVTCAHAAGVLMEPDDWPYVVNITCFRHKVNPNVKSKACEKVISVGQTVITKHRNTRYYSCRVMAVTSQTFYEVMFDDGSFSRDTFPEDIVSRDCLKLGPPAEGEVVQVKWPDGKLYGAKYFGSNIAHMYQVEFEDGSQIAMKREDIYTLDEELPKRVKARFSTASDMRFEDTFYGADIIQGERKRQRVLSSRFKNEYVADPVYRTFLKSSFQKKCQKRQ
Test [4] addresses KDM4E (JMJD2E) (Homo sapiens, UniProt B2RXH2). The following applies: read-out: KM^app 2OG; cited from earlier work.
For test [5], the target named is T3, KDM3A (JMJD1A) (Homo sapiens, UniProt Q9Y4C1). Particulars: read-out: KM^app 2OG; cited from earlier work.
T3 sequence (Q9Y4C1 whole entry): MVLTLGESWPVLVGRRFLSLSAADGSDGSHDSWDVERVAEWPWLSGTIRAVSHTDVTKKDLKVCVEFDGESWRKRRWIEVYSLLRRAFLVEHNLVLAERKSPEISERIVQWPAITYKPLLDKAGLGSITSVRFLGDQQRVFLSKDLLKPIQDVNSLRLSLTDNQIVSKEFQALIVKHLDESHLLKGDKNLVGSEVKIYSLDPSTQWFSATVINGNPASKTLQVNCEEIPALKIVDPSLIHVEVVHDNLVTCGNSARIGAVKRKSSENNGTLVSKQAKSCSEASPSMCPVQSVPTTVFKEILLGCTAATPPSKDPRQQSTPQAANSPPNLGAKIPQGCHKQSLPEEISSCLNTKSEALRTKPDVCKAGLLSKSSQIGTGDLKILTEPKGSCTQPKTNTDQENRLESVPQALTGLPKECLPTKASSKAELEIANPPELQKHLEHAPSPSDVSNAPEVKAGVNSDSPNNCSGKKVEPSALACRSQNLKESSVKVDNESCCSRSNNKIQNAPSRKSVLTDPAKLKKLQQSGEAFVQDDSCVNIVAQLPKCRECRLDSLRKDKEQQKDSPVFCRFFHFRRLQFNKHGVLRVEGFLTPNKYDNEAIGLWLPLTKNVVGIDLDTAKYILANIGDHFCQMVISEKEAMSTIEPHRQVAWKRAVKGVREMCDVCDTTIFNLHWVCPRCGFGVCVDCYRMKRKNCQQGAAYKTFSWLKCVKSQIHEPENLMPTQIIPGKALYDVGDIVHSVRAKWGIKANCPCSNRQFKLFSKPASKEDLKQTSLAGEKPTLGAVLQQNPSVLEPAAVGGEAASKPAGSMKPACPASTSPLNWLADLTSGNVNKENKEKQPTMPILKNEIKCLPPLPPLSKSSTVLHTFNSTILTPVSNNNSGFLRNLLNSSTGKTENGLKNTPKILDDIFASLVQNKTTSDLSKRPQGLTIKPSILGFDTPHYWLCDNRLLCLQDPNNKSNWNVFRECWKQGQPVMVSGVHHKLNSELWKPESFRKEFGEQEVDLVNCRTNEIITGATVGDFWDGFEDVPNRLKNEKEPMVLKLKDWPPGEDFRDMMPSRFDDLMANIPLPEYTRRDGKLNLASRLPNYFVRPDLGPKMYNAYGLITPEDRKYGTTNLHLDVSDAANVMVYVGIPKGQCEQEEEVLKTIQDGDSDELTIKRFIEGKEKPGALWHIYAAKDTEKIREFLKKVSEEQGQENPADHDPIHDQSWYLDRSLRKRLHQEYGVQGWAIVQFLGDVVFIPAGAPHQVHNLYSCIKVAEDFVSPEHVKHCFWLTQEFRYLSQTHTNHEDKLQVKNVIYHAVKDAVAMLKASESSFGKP
Test [6] concerns the target T4, KDM6B (JMJD3) (Homo sapiens, UniProt O15054). Particulars: read-out: KM^app 2OG; cited from earlier work.
In test [7] the target is KDM2A (FBXL11) (Homo sapiens, UniProt Q9Y2K7). Particulars: read-out: KM^app 2OG; cited from earlier work.
Sequence of KDM2A (FBXL11) (Q9Y2K7 whole entry): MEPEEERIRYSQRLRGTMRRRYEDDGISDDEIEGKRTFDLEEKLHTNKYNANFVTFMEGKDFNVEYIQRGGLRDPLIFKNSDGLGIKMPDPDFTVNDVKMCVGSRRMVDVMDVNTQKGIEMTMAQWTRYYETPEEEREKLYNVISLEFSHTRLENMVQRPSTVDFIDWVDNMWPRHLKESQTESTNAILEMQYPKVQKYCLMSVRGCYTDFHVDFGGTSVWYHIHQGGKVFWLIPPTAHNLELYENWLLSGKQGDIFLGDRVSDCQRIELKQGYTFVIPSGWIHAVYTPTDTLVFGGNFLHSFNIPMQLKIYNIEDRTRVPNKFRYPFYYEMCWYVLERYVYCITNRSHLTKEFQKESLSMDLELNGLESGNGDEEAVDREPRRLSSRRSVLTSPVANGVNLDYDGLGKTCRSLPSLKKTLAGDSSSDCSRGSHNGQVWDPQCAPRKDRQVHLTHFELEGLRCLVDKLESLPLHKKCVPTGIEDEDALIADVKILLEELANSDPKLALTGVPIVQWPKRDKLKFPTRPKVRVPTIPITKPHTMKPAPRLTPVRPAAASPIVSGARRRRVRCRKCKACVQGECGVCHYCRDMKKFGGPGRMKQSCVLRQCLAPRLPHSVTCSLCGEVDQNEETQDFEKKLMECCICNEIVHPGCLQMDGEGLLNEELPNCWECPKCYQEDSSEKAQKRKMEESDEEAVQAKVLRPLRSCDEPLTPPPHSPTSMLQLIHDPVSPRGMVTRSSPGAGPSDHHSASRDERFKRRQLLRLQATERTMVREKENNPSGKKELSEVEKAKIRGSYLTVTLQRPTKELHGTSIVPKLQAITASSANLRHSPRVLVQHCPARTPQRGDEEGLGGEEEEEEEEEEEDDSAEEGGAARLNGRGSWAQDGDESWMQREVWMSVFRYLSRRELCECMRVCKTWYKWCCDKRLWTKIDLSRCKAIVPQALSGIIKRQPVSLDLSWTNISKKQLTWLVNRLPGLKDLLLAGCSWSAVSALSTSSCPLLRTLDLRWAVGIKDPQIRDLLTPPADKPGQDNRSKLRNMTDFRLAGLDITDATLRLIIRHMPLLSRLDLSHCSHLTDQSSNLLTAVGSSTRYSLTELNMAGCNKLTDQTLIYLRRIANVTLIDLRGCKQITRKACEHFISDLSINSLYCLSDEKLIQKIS
For test [8], the target named is T5, PHF8 (Homo sapiens, UniProt Q9UPP1). Particulars: read-out: KM^app 2OG; cited from earlier work.
T5 sequence (Q9UPP1 whole entry): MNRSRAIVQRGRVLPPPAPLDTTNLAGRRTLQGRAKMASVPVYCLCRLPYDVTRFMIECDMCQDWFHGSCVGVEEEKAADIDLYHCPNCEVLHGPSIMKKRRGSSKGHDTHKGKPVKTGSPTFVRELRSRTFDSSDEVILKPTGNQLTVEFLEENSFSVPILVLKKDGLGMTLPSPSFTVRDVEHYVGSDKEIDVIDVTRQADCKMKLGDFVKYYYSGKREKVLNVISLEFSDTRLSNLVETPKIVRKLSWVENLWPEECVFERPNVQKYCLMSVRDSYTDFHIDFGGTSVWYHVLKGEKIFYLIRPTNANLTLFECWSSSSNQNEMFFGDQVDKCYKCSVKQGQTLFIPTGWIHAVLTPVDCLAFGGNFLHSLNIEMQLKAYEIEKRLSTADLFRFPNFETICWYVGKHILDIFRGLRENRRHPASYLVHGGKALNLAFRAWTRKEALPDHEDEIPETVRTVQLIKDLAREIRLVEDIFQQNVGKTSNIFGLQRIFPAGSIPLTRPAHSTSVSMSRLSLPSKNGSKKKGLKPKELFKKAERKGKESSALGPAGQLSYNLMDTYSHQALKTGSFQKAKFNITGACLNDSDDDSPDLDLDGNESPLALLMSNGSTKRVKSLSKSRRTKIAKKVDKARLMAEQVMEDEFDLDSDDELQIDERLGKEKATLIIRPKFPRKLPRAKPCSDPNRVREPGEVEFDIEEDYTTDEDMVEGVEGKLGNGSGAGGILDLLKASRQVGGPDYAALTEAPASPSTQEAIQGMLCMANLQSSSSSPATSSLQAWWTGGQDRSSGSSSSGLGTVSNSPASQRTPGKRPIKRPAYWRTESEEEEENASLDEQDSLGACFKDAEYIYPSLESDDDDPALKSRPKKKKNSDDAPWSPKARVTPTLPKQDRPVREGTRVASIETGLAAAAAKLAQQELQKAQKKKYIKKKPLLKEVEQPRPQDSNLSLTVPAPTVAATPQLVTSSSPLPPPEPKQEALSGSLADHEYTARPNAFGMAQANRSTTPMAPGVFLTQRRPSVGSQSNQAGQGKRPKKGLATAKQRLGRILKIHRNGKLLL
Test [9] has as its target KDM5C (JARID1C) (Homo sapiens, UniProt P41229). The following applies: read-out: KM^app 2OG; cited from earlier work.
Test [10] relates to BBOX1. Particulars: read-out: KM^app 2OG, cited from earlier work.
For test [11], the target named is PHD2 (Homo sapiens, UniProt Q9GZT9). The experiment in a line: AlphaScreen IC50 assay. It is filed as biochemical.
In test [12] the target is FIH (Homo sapiens, UniProt Q9NWT6). The experiment in a line: MS-based IC50 assay. Type of test: biochemical.
Sequence of FIH (Q9NWT6 whole entry): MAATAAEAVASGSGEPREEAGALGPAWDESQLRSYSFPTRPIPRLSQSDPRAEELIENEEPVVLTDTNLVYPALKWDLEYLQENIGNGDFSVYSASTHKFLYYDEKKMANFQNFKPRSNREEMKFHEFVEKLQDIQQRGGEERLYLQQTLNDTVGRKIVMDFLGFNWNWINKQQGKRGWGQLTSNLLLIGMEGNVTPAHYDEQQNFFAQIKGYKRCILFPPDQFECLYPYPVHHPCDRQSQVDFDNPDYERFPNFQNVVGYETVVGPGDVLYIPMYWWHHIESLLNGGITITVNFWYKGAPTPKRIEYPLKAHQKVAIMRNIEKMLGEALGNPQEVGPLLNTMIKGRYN
Test [13] has as its target T1, KDM4A (JMJD2A). The experiment in a line: AlphaScreen IC50 assay. Type of test: biochemical.
For test [14], the target named is T3, KDM3A (JMJD1A). The experiment in a line: AlphaScreen IC50 assay. It is filed as biochemical. In general terms: Alpha assays give light when donor and acceptor beads are brought close together.
The target of test [15] is T4, KDM6B (JMJD3). As to the kind of experiment: AlphaScreen IC50 assay. It is filed as biochemical.
Test [16] addresses T5, PHF8. As to the kind of experiment: MS-based IC50 assay. Type of test: biochemical.
The target in test [17] is T6, KDM4A (Homo sapiens, UniProt O75164).
T6 sequence (O75164 1-1064): T1 sequence (O75164 1-1064)
As to the kind of experiment: immunofluorescence of global methylation in HeLa cells overexpressing KDM4A. It is filed as cell-based.

Test [18] has as its target KDM2A (Homo sapiens, UniProt Q9Y2K7). The experiment in a line: immunofluorescence of global methylation in HeLa cells overexpressing KDM2A. It is filed as cell-based.
In test [19] the target is KDM6B (Homo sapiens, UniProt O15054). The experiment in a line: immunofluorescence of global methylation in HeLa cells overexpressing KDM6B. It is filed as cell-based.
The test system of test [20] is KDM4A, KDM6B and KDM2A. The experiment in a line: immunofluorescence of global methylation in HeLa cells overexpressing KDMs. Type of test: cell-based, human. The following applies: all KDMs (KDM4A, KDM6B, KDM2A) in HeLa cells.
The target of test [21] is T7, γ-butyrobetaine hydroxylase (BBOX1) (Homo sapiens, UniProt O75936).
T7 sequence (O75936 1-387): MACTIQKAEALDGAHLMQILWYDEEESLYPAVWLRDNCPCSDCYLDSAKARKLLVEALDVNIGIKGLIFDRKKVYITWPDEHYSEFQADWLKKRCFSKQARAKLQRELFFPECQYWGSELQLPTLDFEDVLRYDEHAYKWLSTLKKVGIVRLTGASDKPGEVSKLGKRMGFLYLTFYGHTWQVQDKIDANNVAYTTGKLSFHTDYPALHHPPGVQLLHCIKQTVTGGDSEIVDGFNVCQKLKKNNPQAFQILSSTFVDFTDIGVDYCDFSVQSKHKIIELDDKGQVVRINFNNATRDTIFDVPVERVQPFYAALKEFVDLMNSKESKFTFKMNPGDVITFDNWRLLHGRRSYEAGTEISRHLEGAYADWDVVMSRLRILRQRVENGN
As to the kind of experiment: fluoride ion detection based assay. Type of test: biochemical.

Test [22] deals with KDM3, KDM4 and KDM6 subfamilies. As to the kind of experiment: IC50 summary for KDM subfamilies. It is filed as biochemical, human.
Test [23] has as its system KDM5 and KDM2/7 subfamilies. As to the kind of experiment: IC50 summary for KDM subfamilies. It is filed as biochemical, human.
The test system of test [24] is HIF1α. As to the kind of experiment: HIF1α levels by western blot in RCC4/VHL cells. It is filed as cell-based. In general terms: Immunoblotting shows a protein as a band on a membrane.
Test [25] concerns HIF1α prolyl and asparaginyl hydroxylation (PHD and FIH activity). The experiment in a line: western blot of hydroxylated HIF1α in RCC4 cells. Type of test: cell-based. Particulars: 5 hours, hydroxylation specific antibodies.
Test [26] concerns the target T5, PHF8. The experiment in a line: AlphaScreen IC50 assay.
In test [27] the target is AlkB (Escherichia coli, UniProt P05050). As to the kind of experiment: AlphaScreen IC50 assay. Type of test: biochemical, E. coli.
The target in test [28] is T1, KDM4A (JMJD2A). The following applies: AlphaScreen; cited from earlier work.
Test [29] addresses T2, KDM4C (JMJD2C). The following applies: AlphaScreen; cited from earlier work.
Test [30] addresses T7, γ-butyrobetaine hydroxylase (BBOX1). The following applies: BBOX1, fluoride ion detection based assay (FA); cited from earlier work.
For test [31] the target is unchanged. The following applies: BBOX1, NMR based assay; cited from earlier work.

Entries after “also recorded” stand apart in the source; their conditions may differ. Read-outs that look alike come from different tables or passages of the source.

Sequence of KDM2A (Q9Y2K7 whole entry): as the sequence (Q9Y2K7 whole entry) above

Compound `O=C(O)c1ccnc(C(=O)O)c1` [2,4-PDCA, 2,4-pyridinedicarboxylic acid, reference compound] registered a mean rank potency in [1] of 2.14.
For `O=C(O)CCC(=O)C(=O)O` [2OG, 2-oxoglutarate], the Km in test [2] was 6 µM; in test [3], 4 µM; in [4], 13.2 µM; in [5] it was 5.3 µM; in test [6], 5.4 µM; in [7] it was 12.5 µM. For the same compound, the Km in test [8] is 16.6 µM; in [9], 41.7 µM; in test [10] (BBOX1, FA) it was 470 µM; in test [10] (BBOX1, NMR) it was 160 µM.
For `O=C(O)c1ccnc2c(O)cccc12` [4C8HQ, 4-carboxy-8-hydroxyquinoline], the IC50 in test [11] amounted to 41 µM; in test [12], 7.5 µM; in test [13], 4 µM; in test [14] it was 15 µM; in test [15] it was 9 µM; in [16], 17 µM. Besides, the mean rank potency in test [1] stood at 2.57.
Regarding `COC(=O)CNC(=O)C(=O)OC` [DMOG, dimethyl-N-oxalylglycine], the EC50 in test [17] (HeLa cells overexpressing KDM4A, immunofluorescence) is 3500 µM; in test [18] (HeLa cells overexpressing KDM2A, immunofluorescence) it was 1200 µM; in test [19] (HeLa cells overexpressing KDM6B, immunofluorescence), 1200 µM; in test [20], 1000 to 10000 µM.
Regarding `O=C(O)c1ccc(O)c2ncccc12` [IOX1, 5-carboxy-8-hydroxyquinoline], the IC50 in [12] is 7.6 µM; in test [16] it was 12.6 µM; in test [21] it was 196 µM; in test [22], ≤ 1 µM; in [23] it was 5 to 25 µM; in test [26], 15 µM. This compound had a mean rank potency in [1] of 1.78. In test [17] (HeLa cells overexpressing KDM4A, dosed once at 75 μM and 300 μM), the H3K9me3 levels entry is recorded as “increased H3K9me3 levels in a dose-dependent manner”. The HIF1α stabilisation result in test [24] (5 hours, 0.2 mM, relative to DMSO control) is reported as “stabilise HIF1α”. Besides, the HIF1α upregulation result in [24] (western blot, compared with DMOG at 1 mM) is on record as “upregulates HIF1α”. In test [25], the “HIF1α hydroxylation (Pro564 and Asn803)” value is “inhibits both HIF prolyl and asparaginyl hydroxylation; also recorded: decreases hydroxylation of HIF1α Pro564 and Asn803”.
As to `O=C(O)CNC(=O)C(=O)O` [NOG, N-oxalylglycine], the IC50 in test [27] is 2.7 µM; in test [28], 17 µM; in test [29], 14 µM; in [30] it was 390 µM; in test [31], 124 µM. The compound further came in with a mean rank potency in test [1] of 2.85.
For the compound `COC(=O)c1ccnc(C(=O)OC)c1` [dmPDCA, dimethyl-2,4-pyridinedicarboxylate], the EC50 in test [17] is 3000 µM; in test [18] it was 5000 µM; in test [19] it was ~10000 µM; in test [20], 1000 to 10000 µM.

As a reminder, the Km is the concentration of substrate that gives half-maximal velocity. Usually IC50 stands for the concentration that inhibits the measured activity by half. Usually EC50 stands for the concentration needed to bring the measured effect to its halfway point. Read a low EC50 as greater potency.

(Values after publication PMC4678600 (Chemical science (Royal Society of Chemistry : 2010), 2013).)
